# Experimental data: the Kinase Knowledgebase extract (Sharma et al. 2016)
# Target: MAPK14 (human) (UniProt Q16539)
# Assay: Cell-Based Assay
# Settings: hct-116
# Sequence of MAPK14 (human) (Q16539 whole entry, looked up): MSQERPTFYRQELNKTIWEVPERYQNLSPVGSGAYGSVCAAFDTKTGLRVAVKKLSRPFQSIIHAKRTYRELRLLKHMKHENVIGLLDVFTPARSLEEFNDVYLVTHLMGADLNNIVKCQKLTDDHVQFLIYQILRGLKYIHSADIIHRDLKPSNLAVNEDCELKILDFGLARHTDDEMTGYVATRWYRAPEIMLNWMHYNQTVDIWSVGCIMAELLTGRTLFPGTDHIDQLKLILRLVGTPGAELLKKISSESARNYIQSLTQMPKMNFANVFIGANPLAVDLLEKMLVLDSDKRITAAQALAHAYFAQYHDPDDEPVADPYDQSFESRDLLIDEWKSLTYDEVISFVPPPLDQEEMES
row,Structure (SMILES),IC50
1,CC(=O)N1CCC(n2cc(-c3cnc(N)c4oc(-c5cccn6ccnc56)cc34)cn2)CC1,100 to 1000 nM
2,CC(=O)N1CCC(n2cc(-c3cnc(N)c4oc(-c5cccc(C#N)c5)cc34)cn2)CC1,100 to 1000 nM
3,Nc1ncc(-c2cnn([C@H]3CC[C@H](O)CC3)c2)c2cc(-c3csc4cnccc34)oc12,≤ 100 nM
4,CC(=O)N1CCC(n2cc(-c3cnc(N)c4oc(-c5csc6cncc(F)c56)cc34)cn2)CC1,100 to 1000 nM
5,CC(=O)N1CCC(n2cc(-c3cnc(N)c4oc(-c5ccc6c(c5)CNC6=O)cc34)cn2)CC1,> 10000 nM
6,CNc1ncc(-c2cnn(C3CCN(C(C)=O)CC3)c2)c2cc(-c3csc4cnccc34)oc12,≤ 100 nM
7,Nc1ncc(-c2cnn(C3CCCCC3)c2)c2cc(-c3c[nH]c4cnccc34)oc12,100 to 1000 nM
8,Nc1ncc(-c2cnn(C3CC(=O)C3)c2)c2cc(-c3csc4cnccc34)oc12,100 to 1000 nM
9,CC(=O)N1CCC(n2cc(-c3cnc(N)c4oc(-c5csc6cnccc56)cc34)cn2)CC1,100 to 1000 nM
10,CC(=O)N1CCC(n2cc(-c3cnc(N)c4oc(-c5cncc6cnsc56)cc34)cn2)CC1,100 to 1000 nM
11,Nc1ncc(-c2cnn(C3CCNCC3)c2)c2cc(-c3cccc4cnsc34)oc12,100 to 1000 nM
12,CC(=O)N1CC(n2cc(-c3cnc(N)c4oc(-c5csc6cnccc56)cc34)cn2)C1,100 to 1000 nM
13,CC(=O)N1CCC(n2cc(-c3cnc(N)c4oc(-c5cnn(Cc6cccnc6)c5)cc34)cn2)CC1,> 10000 nM
14,CS(=O)(=O)CCN1CCC(n2cc(-c3cnc(N)c4oc(-c5cccc6cnccc56)cc34)cn2)CC1,100 to 1000 nM
15,CC(C)N1CCC(n2cc(-c3cnc(N)c4oc(-c5cccc6cnccc56)cc34)cn2)CC1,100 to 1000 nM
16,CC(C)n1cc(-c2cnc(N)c3oc(-c4c[nH]c5cnccc45)cc23)cn1,≤ 100 nM
17,CC(=O)N1CCC(n2cc(-c3cnc(N)c4oc(-c5cccc(OCC#N)c5)cc34)cn2)CC1,100 to 1000 nM
18,COCC(=O)N1CCC(n2cc(-c3cnc(N)c4oc(-c5cccc6cnccc56)cc34)cn2)CC1,100 to 1000 nM
19,CC(=O)N1CCC(n2cc(-c3cnc(N)c4oc(-c5ccc6c(c5)C(=O)NC6)cc34)cn2)CC1,> 10000 nM
20,CC(=O)N1CCC(n2cc(-c3cnc(N)c4oc(-c5c[nH]c6cc(C#N)ccc56)cc34)cn2)CC1,100 to 1000 nM
21,Nc1ncc(-c2cnn(C3CCN(C(=O)C4CC4)CC3)c2)c2cc(-c3cccc4cnccc34)oc12,100 to 1000 nM

row,Structure (SMILES),IC50
1,Nc1ncc(-c2cnn([C@H]3CC[C@H](O)CC3)c2)c2cc(-c3c(F)ccc4cnsc34)oc12,100 to 1000 nM
2,Nc1ncc(-c2cnn(C3CCNCC3)c2)c2cc(-c3csc4cnccc34)oc12,100 to 1000 nM
3,Nc1ncc(-c2cnn(C3CCN(CC(F)(F)F)CC3)c2)c2cc(-c3cccc4cnccc34)oc12,100 to 1000 nM
4,Nc1ncc(-c2cnn([C@H]3CC[C@H](O)CC3)c2)c2cc(-c3cccc4cnccc34)oc12,100 to 1000 nM
5,CC(=O)N1CCC(n2cc(-c3cnc(N)c4oc(-c5cccc6[nH]ccc56)cc34)cn2)CC1,100 to 1000 nM
6,CS(=O)(=O)N1CCC(n2cc(-c3cnc(N)c4oc(-c5cccc6cnccc56)cc34)cn2)CC1,100 to 1000 nM
7,CC(=O)N1CCC(n2cc(-c3cnc(N)c4oc(-c5cccc6nnsc56)cc34)cn2)CC1,≤ 100 nM
8,Nc1ncc(-c2cnn(C3CC4(C3)OCCO4)c2)c2cc(-c3csc4cnccc34)oc12,100 to 1000 nM
9,Nc1ncc(-c2cnn([C@H]3CC[C@H](O)CC3)c2)c2cc(-c3ccc(F)c4cnsc34)oc12,100 to 1000 nM
10,Cn1cc(-c2cnc(N)c3oc(-c4cccc5cnccc45)cc23)cn1,100 to 1000 nM
11,CC(=O)N1CCC(n2cc(-c3cnc(N)c4oc(-c5cccc([N+](=O)[O-])c5)cc34)cn2)CC1,100 to 1000 nM
12,Nc1ncc(-c2cnn([C@H]3CC[C@H](O)CC3)c2)c2cc(-c3cccc4nnsc34)oc12,≤ 100 nM
13,Nc1ncc(-c2cnn(C3CNC3)c2)c2cc(-c3csc4cnccc34)oc12,100 to 1000 nM
14,COCCN1CCC(n2cc(-c3cnc(N)c4oc(-c5cccc6cnccc56)cc34)cn2)CC1,100 to 1000 nM
15,CC(=O)N1CCC(n2cc(-c3cnc(N)c4oc(-c5cccc6ccnn56)cc34)cn2)CC1,100 to 1000 nM
16,CNc1ncc(-c2cnn([C@H]3CC[C@H](O)CC3)c2)c2cc(-c3csc4cnccc34)oc12,≤ 100 nM
17,CC(=O)N1CCC(n2cc(-c3cnc(N)c4oc(-c5ccc6[nH]nnc6c5)cc34)cn2)CC1,> 10000 nM
18,CCN1CCC(n2cc(-c3cnc(N)c4oc(-c5cccc6cnccc56)cc34)cn2)CC1,100 to 1000 nM
19,CC(=O)N1CCC(n2cc(-c3cnc(N)c4oc(-c5ccc6ncn(C)c6c5)cc34)cn2)CC1,> 10000 nM
20,CC(=O)N1CCC(n2cc(-c3cnc(N)c4oc(-c5cccc6cnsc56)cc34)cn2)CC1,≤ 100 nM
21,CC(=O)N1CCC(n2cc(-c3cnc(N)c4oc(-c5ccc(O)cc5C)cc34)cn2)CC1,100 to 1000 nM

row,Structure (SMILES),IC50
1,CC(=O)N1CCC(n2cc(-c3cnc(N)c4oc(-c5ccc6scnc6c5)cc34)cn2)CC1,100 to 1000 nM
2,CC(=O)N1CCC(n2cc(-c3cnc(N)c4oc(-c5ccc(O)cc5)cc34)cn2)CC1,100 to 1000 nM
3,C[C@]1(O)CC[C@@H](n2cc(-c3cnc(N)c4oc(-c5cccc6cnccc56)cc34)cn2)CC1,100 to 1000 nM
4,Nc1ncc(-c2cnn([C@H]3CC[C@H](O)CC3)c2)c2cc(-c3cccc4cnsc34)oc12,100 to 1000 nM
5,CC(C)n1cc(-c2cnc(N)c3oc(-c4cccc5cnccc45)cc23)cn1,100 to 1000 nM
6,CNc1ncc(-c2cnn(C3CCN(C(C)=O)CC3)c2)c2cc(-c3c[nH]c4cnccc34)oc12,100 to 1000 nM
7,CC(=O)N1CCC(n2cc(-c3cnc(N)c4oc(-c5ccc6[nH]ccc6c5)cc34)cn2)CC1,100 to 1000 nM
8,CC(=O)N1CCC(n2cc(-c3cnc(N)c4oc(-c5csc6ccccc56)cc34)cn2)CC1,100 to 1000 nM
9,CC(=O)N1CCC(n2cc(-c3cnc(N)c4oc(-c5cccc6[nH]ncc56)cc34)cn2)CC1,100 to 1000 nM
10,Nc1ncc(-c2cnn([C@H]3CC[C@H](O)CC3)c2)c2cc(-c3cncc4cnsc34)oc12,100 to 1000 nM
11,CC(C)(C)OC(=O)N1CCC(n2cc(-c3cnc(N)c4oc(-c5csc6cnccc56)cc34)cn2)CC1,100 to 1000 nM
12,Nc1ncc(-c2cnn(C3CCNCC3)c2)c2cc(-c3ccc4[nH]ncc4c3)oc12,100 to 1000 nM
13,CC(=O)N1CCC(n2cc(-c3cnc(N)c4oc(-c5cccc6c5OC(F)(F)O6)cc34)cn2)CC1,100 to 1000 nM
14,CC(=O)N1CCC(n2cc(-c3cnc(N)c4oc(-c5ccc6occc6c5)cc34)cn2)CC1,100 to 1000 nM
15,Nc1ncc(-c2cnn(C3CCNCC3)c2)c2cc(-c3cccc4cnccc34)oc12,100 to 1000 nM
16,Nc1ncc(-c2cnn(C3CCN(CCF)CC3)c2)c2cc(-c3cccc4cnccc34)oc12,100 to 1000 nM
17,Cc1sc2cnccc2c1-c1cc2c(-c3cnn([C@H]4CC[C@H](O)CC4)c3)cnc(N)c2o1,100 to 1000 nM
18,CC(=O)N1CCC(n2cc(-c3cnc(N)c4oc(-c5cccc(O)c5)cc34)cn2)CC1,100 to 1000 nM
19,CCSc1ccccc1-c1cc2c(-c3cnn(C4CCN(C(C)=O)CC4)c3)cnc(N)c2o1,100 to 1000 nM
20,CN1CCC(n2cc(-c3cnc(N)c4oc(-c5cccc6cnccc56)cc34)cn2)CC1,100 to 1000 nM
21,Nc1ncc(-c2cnn([C@H]3CC[C@H](O)CC3)c2)c2cc(-c3cc(F)cc4cnsc34)oc12,100 to 1000 nM

row,Structure (SMILES),IC50
1,CC(=O)N1CCC(n2cc(-c3cnc(N)c4oc(-c5cccc([N+](=O)[O-])c5C)cc34)cn2)CC1,100 to 1000 nM
2,Nc1ncc(-c2cn[nH]c2)c2cc(-c3cccc4cnccc34)oc12,100 to 1000 nM
3,CSc1ccccc1-c1cc2c(-c3cnn(C4CCN(C(C)=O)CC4)c3)cnc(N)c2o1,100 to 1000 nM
4,CC(=O)N1CCC(n2cc(-c3cnc(N)c4oc(-c5c[nH]c6cc(F)ccc56)cc34)cn2)CC1,100 to 1000 nM
5,CC(=O)N1CCC(n2cc(-c3cnc(N)c4oc(-c5cn[nH]c5)cc34)cn2)CC1,> 10000 nM
6,Nc1ncc(-c2cnn([C@H]3CC[C@H](O)CC3)c2)c2cc(-c3csc4cnc(F)cc34)oc12,≤ 100 nM
7,CC(C)C(=O)N1CCC(n2cc(-c3cnc(N)c4oc(-c5cccc6cnccc56)cc34)cn2)CC1,≤ 100 nM
8,Nc1ncc(-c2cnn([C@@H]3C[C@@H](O)[C@@H](O)C3)c2)c2cc(-c3csc4cnccc34)oc12,100 to 1000 nM
9,Nc1ncc(-c2cnn(C3CCNCC3)c2)c2cc(-c3ccc4[nH][nH]c(=O)c4c3)oc12,> 10000 nM
10,CC(=O)N1CCC(n2cc(-c3cnc(N)c4oc(-c5ccc6c(c5)CCO6)cc34)cn2)CC1,≤ 100 nM
11,CC(=O)N1CCC(n2cc(-c3cnc(N)c4oc(-c5ccc6[nH]nc(C#N)c6c5)cc34)cn2)CC1,> 10000 nM
12,CC(=O)N1CCC(n2cc(-c3cnc(N)c4oc(-c5ccc6sccc6c5)cc34)cn2)CC1,100 to 1000 nM
13,CC(=O)N1CCC(n2cc(-c3cnc(N)c4oc(-c5ccc(S(C)(=O)=O)cc5)cc34)cn2)CC1,> 10000 nM
14,CC(=O)N1CCC(n2cc(-c3cnc(N)c4oc(-c5cccc6cnccc56)cc34)cn2)CC1,100 to 1000 nM
15,CC(=O)N1CCC(n2cc(-c3cnc(N)c4oc(-c5ccccc5CC#N)cc34)cn2)CC1,100 to 1000 nM
16,Nc1ncc(-c2cnn(C3CCN(C(=O)C4CCC4)CC3)c2)c2cc(-c3cccc4cnccc34)oc12,100 to 1000 nM
17,Nc1ncc(-c2cnn(C3CCN(CCO)CC3)c2)c2cc(-c3cccc4cnccc34)oc12,100 to 1000 nM
18,Cn1cc(-c2cnc(N)c3oc(-c4c[nH]c5cnccc45)cc23)cn1,100 to 1000 nM
19,Cn1cc(-c2cnc(N)c3oc(-c4csc5cnccc45)cc23)cn1,100 to 1000 nM
